Laboratory results: article PMC5562305, “Impact of novel palmitoylated prolactin-releasing peptide analogs on metabolic changes in mice with diet-induced obesity” (PLoS ONE, 2017)
Starred links: 1 amine or outer side, 2 acyl side, 3 side chain; linkers in the order of their positions; H or OH if unused. Residues, ends and D or L forms follow the SMILES beside them. Groups on a side chain read outwards from the residue. *: point of attachment. TTDA(Palmitoyl) = CCCCCCCCCCCCCCCC(=O)NCCCOCCOCCOCCCN*; Suc = O=C(CCC(=O)[*:2])[*:1]

Test system: urinary metabolites
Assay: NMR-based metabolomics of urine of DIO mice
Assay type: in vivo, C57BL/6 mice
Set-up: key to DMA, Mean / DMG, Mean / MA, Mean / TMA, Mean / acetate, Mean / allantoin, Mean / carnitine, Mean / choline, Mean / cis-aconitate, Mean / creatine+creatinine, Mean / creatine, Mean / creatinine, Mean / ethanolamine, Mean / formate, Mean / galactose, Mean / glucose, Mean / glycine, Mean / lactate, Mean / succinate, Mean / vinylacetylglycine, Mean: TSA-normalized intensity of the metabolite's representative NMR signal
Conditions: urine of DIO mice, NMR metabolomics
Experimental: Urine samples for NMR-based metabolomics were collected prior to the start of the interventions and at the end of the experiment. For overnight urine collection (from 5 pm to 8 am), the mice were housed in individual metabolic cages (Tecniplast, Buguggiate, Italy) without access to food. Samples were collected with the addition of NaN3 and stored at -80°C until NMR analysis.
The urine samples were thawed at room temperature and centrifuged at 13 684 x g for 5 min prior to the NMR experiments. A 200-μl aliquot of supernatant was diluted with 340 μl of H2O mixed with 60 μl of phosphate buffer (1.5 M KH2PO4 in D2O containing 2 mM NaN3 and 0.1% trimethylsilyl propionic acid (TSP), pH 7.4) and transferred to a 5-mm NMR tube. The NMR data were acquired with a 600 MHz Bruker Avance III spectrometer (Bruker BioSpin, Rheinstetten, Germany) equipped with a 5-mm TCI cryogenic probe head. All of the experiments were performed at 300 K. Automatic tuning, matching, shimming and adjusting of the 90° pulse length were performed for each sample.
As mouse urine naturally contains urinary proteins, the NMR spectra were acquired using a Carr-Purcell-Meiboom-Gill (CPMG) pulse sequence with water presaturation (Bruker pulse sequence cpmgpr1d) to eliminate the strong protein background. […] For better metabolite identification, a short J-resolved experiment with presaturation (NS = 2, SW = 16 ppm, TD = 8k, number of increments = 40, SW = 78.125 Hz in the indirect dimension, and relaxation delay = 2 s) was executed for all samples. Additional two-dimensional ^1H-^1H correlation spectroscopy (COSY) and ^1H-^13C heteronuclear multiple-quantum correlation (HMQC) experiments (Bruker pulse sequences cosygpprqf and hmqcphpr) were performed for selected samples.
The acquired data were processed using Topspin 3.2 software (Bruker BioSpin, Rheinstetten, Germany). Line broadening of 0.3 Hz was applied on free induction decays (FIDs) prior to Fourier transformation. The spectra were automatically phased, baseline corrected and referenced to the signal of TSP (0.00 ppm).
The assignment of individual metabolites was achieved by comparing the proton spectra with the spectra of pure metabolites using Chenomx NMR Suite 7.6 (Chenomx Inc., Edmonton, AB, Canada), the HMDB database and previously published metabolomic data. The identification of metabolites was supported through J-resolved and COSY experiments and, if possible, confirmed using carbon chemical shifts extracted from the HMQC spectra.
For quantitation of individual metabolites, the CPMG spectra were uniformly binned in the range of 0.10–10.00 ppm to 0.01-ppm intervals using AMIX software (Bruker BioSpin, Rheinstetten, Germany). This procedure reduced the dimensionality of the data, eliminated chemical shift variations and thus simplified the reproducible automatic quantification. Regions corresponding to water (4.60–4.90 ppm) and urea (5.60–6.00 ppm) were removed prior to analysis. As the dilutions of the original urine samples differed (due to the differences in water intake during urine collection), all of the spectra were normalized to the total spectral area (TSA). For each identified metabolite, one representative signal was chosen and then quantified as the sum of appropriate adjacent 0.01-ppm bins to cover the whole signal width. The metabolite concentration was expressed as the TSA-normalized intensity of the respective signal. For selection of an appropriate statistical method (parametric or non-parametric) the Lilliefors test of normality was performed. […] Metabolite alterations with a P < 0.05 were considered statistically significant. Statistical analysis was performed using Matlab software (“MATLAB version 8.6 (R2015b). Natick, Massachusetts: The MathWorks Inc., 2015.,” n.d.). […]

[1] = difference of analog mean vs saline mean

SMILES: CCCCCCCCCCCCCCCC(=O)NCCCOCCOCCOCCCNC(=O)CCC(=O)NCCCC[C@H](NC(=O)[C@@H](NC(=O)[C@H](CCC(=O)O)NC(=O)[C@H](CCSC)NC(=O)[C@H](CO)NC(=O)[C@H](Cc1c[nH]cn1)NC(=O)[C@H](CCCNC(=N)N)NC(=O)[C@H](Cc1c[nH]cn1)NC(=O)[C@@H](NC(=O)[C@H](CCCNC(=N)N)NC(=O)[C@@H](N)CO)[C@@H](C)O)[C@@H](C)CC)C(=O)N[C@H](C(=O)N1CCC[C@H]1C(=O)N[C@@H](CC(=O)O)C(=O)N[C@H](C(=O)N[C@@H](CC(N)=O)C(=O)N1CCC[C@H]1C(=O)N[C@@H](C)C(=O)N[C@@H](Cc1c[nH]c2ccccc12)C(=O)N[C@@H](Cc1ccc(O)cc1)C(=O)N[C@@H](C)C(=O)N[C@@H](CO)C(=O)N[C@@H](CCCNC(=N)N)C(=O)NCC(=O)N[C@H](C(=O)N[C@@H](CCCNC(=N)N)C(=O)N1CCC[C@H]1C(=O)N[C@H](C(=O)NCC(=O)N[C@@H](CCCNC(=N)N)C(=O)N[C@@H](Cc1ccccc1)C(N)=O)C(C)C)[C@@H](C)CC)[C@@H](C)CC)[C@@H](C)O [analog 2] (H-SRTHRHSMEIK([Suc-TTDA(Palmitoyl)])TPDINPAWYASRGIRPVGRF-NH2; N-terminus assumed)
- creatine, Saline/analog % [1]: -0.033%
- creatinine, Saline/analog % [1]: 0.035%
- ethanolamine, Saline/analog % [1]: -0.025%
- formate, Saline/analog % [1]: 0.032%
- fumarate, Saline/analog % [1]: -0.055%
- galactose, Saline/analog % [1]: 0.041%
- glucose, Saline/analog % [1]: -0.039%
- glycine, Saline/analog % [1]: 0.016%
- hexanoylglycine + acids (0.88 ppm), Saline/analog % [1]: 0.157%
- hippurate (7.55 ppm), Saline/analog % [1]: 0.047%
- hippurate (7.64 ppm), Saline/analog % [1]: 0.039%
- hippurate (7.84 ppm), Saline/analog % [1]: 0.035%
- lactate, Saline/analog % [1]: 0.156%
- multiplet acids (1.6 ppm), Saline/analog % [1]: 0.157%
- putrescin, Saline/analog % [1]: -0.042%
- succinate, Saline/analog % [1]: 0.163%
- taurine (3.27 ppm), Saline/analog % [1]: -0.196%
- taurine (3.43 ppm), Saline/analog % [1]: -0.239%
- trigonelline (8.84 ppm), Saline/analog % [1]: -0.008%
- trigonelline (9.13 ppm), Saline/analog % [1]: -0.024%
- vinylacetylglycine, Saline/analog % [1]: 0.163%
- 2-OG (2.45 ppm), Mean (group mean): 11.956
- 2-OG (3.01 ppm), Mean (group mean): 10.103
- 2-PY (8.33 ppm), Mean (group mean): 0.992
- 3-indoxylsulfate (7.51 ppm), Mean (group mean): 1.459
- 3-indoxylsulfate (7.71 ppm), Mean (group mean): 0.842
- 4-PY (7.97 ppm), Mean (group mean): 1.710
- 4-PY (8.55 ppm), Mean (group mean): 0.484
- DMA, Mean (group mean): 5.145
- DMG, Mean (group mean): 1.928
- MA, Mean (group mean): 2.920
- MNA (8.90 ppm), Mean (group mean): 0.407
- MNA (8.97 ppm), Mean (group mean): 0.391
- MNA (9.265 ppm), Mean (group mean): 0.413
- MNA-Nox (7.75 ppm), Mean (group mean): 0.969
- MNA-Nox (8.13 ppm), Mean (group mean): 0.725
- MNA-Nox (8.49 ppm), Mean (group mean): 0.458
- MNA-Nox (8.75 ppm), Mean (group mean): 0.434
- N-carbamoylalanine (2.38 ppm), Mean (group mean): 10.919
- N-carbamoylalanine (3.31 ppm), Mean (group mean): 9.060
- N-isovalerylglycine + oxovalerate (0.92 ppm), Mean (group mean): 15.384
- TMA, Mean (group mean): 10.220
- acetate, Mean (group mean): 4.384
- allantoin, Mean (group mean): 21.272
- carnitine, Mean (group mean): 6.113
- choline, Mean (group mean): 2.053
- cis-aconitate, Mean (group mean): 9.014
- citrate (2.55 ppm), Mean (group mean): 31.737
- citrate (2.69 ppm), Mean (group mean): 28.801
- creatine+creatinine, Mean (group mean): 23.782
- creatine, Mean (group mean): 6.742
- creatinine, Mean (group mean): 11.494
- ethanolamine, Mean (group mean): 7.749
- formate, Mean (group mean): 0.205
- fumarate, Mean (group mean): 0.167
- galactose, Mean (group mean): 0.806
- glucose, Mean (group mean): 3.486
- glycine, Mean (group mean): 6.185
- hexanoylglycine + acids (0.88 ppm), Mean (group mean): 15.251
- hippurate (7.55 ppm), Mean (group mean): 4.857
- hippurate (7.64 ppm), Mean (group mean): 2.465
- hippurate (7.84 ppm), Mean (group mean): 5.092
- lactate, Mean (group mean): 7.122
- multiplet acids (1.6 ppm), Mean (group mean): 12.357
- putrescin, Mean (group mean): 8.544
- succinate, Mean (group mean): 12.532
- taurine (3.27 ppm), Mean (group mean): 20.714
- taurine (3.43 ppm), Mean (group mean): 17.197
- trigonelline (8.84 ppm), Mean (group mean): 0.310
- trigonelline (9.13 ppm), Mean (group mean): 0.125
- vinylacetylglycine, Mean (group mean): 3.494
